Reference: PubChem BioAssay (NCI)
“And” between values parts separate entries of the source, which are not always exact repeats. Equal values may be shown once.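 Dose response: 5 concentrations. Exposure: 48 h. Format: 96-well plates. Endpoint: linear interpolation; highest concentration if not reached. GI50: concentration for 50% inhibition of growth. TGI marks complete inhibition of growth.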

Test system: MDA-MB-468 breast
Experiment: growth of human tumour cells (NCI), 48 h

Compound	GI50	TGI [µM]
Cn1cc(-c2ccc3c(c2)CCN3C(=O)Cc2cccc(C(F)(F)F)c2)c2c(N)ncnc21	3.71 µM	29.2
COc1cnc2c(c1)C(=O)c1c-2n(CCCN2CCCC2)c(=O)c2cc(Cl)ccc12	0.0635 µM	2.04
NCc1ccc(-n2c(-c3nonc3N)nc3cnccc32)cc1	2.75 µM	11.8
COc1ccc2c(c1)nc(N)c1c3cccnc3cn21	0.294 µM	3.45
Cc1cc(N2CCCC2)nc(N(CCCNc2ccnc3cc(Cl)ccc23)Cc2ccc3c(c2)OCO3)n1	1.18 µM	3.55
Cn1cc(-c2ccc(CNc3cc(-c4cnc5cc(OCCCN6CCCC6)ccn45)ncn3)cc2)cn1	1.66 µM	3.21
COC(=O)[C@@H]1CCCN1C(=O)[C@@H]1CCCN1C(=O)[C@@H](Cc1c[nH]c2ccccc12)NC(=S)Nc1cc(C(F)(F)F)cc(C(F)(F)F)c1	2.05 µM	7.02
O=c1oc2ccc(Cl)cc2c(=O)n1-c1ccc(I)cc1F	0.269 µM	0.87
COc1ccccc1-c1c(C)nn2c(NCc3ccccn3)cc(C)nc12	1.66 µM	> 40.4
CCN1C(=O)N(CC)C2C1NN=c1s/c(=C3\C(=O)N(C)c4ccccc43)c(=O)n12 (stereo unspecified)	0.354 µM	6.01
Cc1ccc2c(c1)ncn2-c1ncnc2c1CC(C)c1ccccc1N2C (stereo unspecified)	0.0492 µM	19.2
CCOC(=O)N1CCN(S(=O)(=O)c2oc(-c3ccc(Cl)cc3)nc2C#N)CC1	1.89 µM	4.09
Oc1cc(Cl)ccc1Oc1ccc(Cl)cc1Cl	2.42 µM	7.24
Nc1nc(Nc2cccc(F)c2)nc2ccccc12	13.6 µM	30.8
CC1=C[C@H]2O[C@@H]3C[C@H]4OC(=O)/C=C\C=C\[C@H]([C@@H](C)O)OCC[C@@H](C)[C@H](O)C(=O)OC[C@@]2(CC1)[C@]4(C)[C@]31CO1	0.00371 µM and 0.00143 µM	0.00228
C=C[C@]1(C)C=C2C(=O)[C@@]3(O)OC[C@@]4(CCCC(C)(C)C43O)C2(O)C(O)C1 (stereo partly specified)	1.29 µM	3.16
C=C(C)CCC(C)N1CCC(N2CCC(C(=O)NCCc3ccccc3)CC2)CC1 (stereo unspecified)	2.2 µM	15.8
O=C(NN1C(=O)CSC1c1ccc(Cl)cc1)c1[nH]c2ccc(F)cc2c1-c1ccccc1 (stereo unspecified)	8.04 µM	25.1
C[C@H](CS(C)(=O)=O)Nc1ncc2cc(Oc3ccc(F)cc3F)c(=O)n(C)c2n1	> 25 µM	> 25
Clc1ccc2nc(Oc3ccccc3)cnc2c1	> 100 µM	> 100
Cn1cc(-c2cc(N)n3nc(-c4cn(C)c5ccc(F)cc45)cc3n2)c2cc(F)ccc21	1.59 µM	3.45
CCc1c[nH]c2ncnc(N3CC[C@@](N)(CNC(=O)c4ccc(F)cc4F)C3)c12	15 µM	63.7
Fc1ccc(Nc2nccc(-c3c(-c4ccc(C(F)(F)F)cc4)nn4ncccc34)n2)cc1F	> 20 µM	> 25
